According to US9809623B2, “α4β7 peptide monomer and dimer antagonists” (Protagonist Therapeutics, Inc., priority 2014, dated 2017):
Where two headings read alike, the source gives them in different places. Numbered stars: 1 amine (or outer) side, 2 acyl side, 3 side chain; on linkers, the order of the positions; unused ones are H or OH. Bridge positions count the residues as written; N and C are the ends. Square brackets hold non-standard residues; d marks the D form. Peptide text beside a SMILES is read from it. I, II: the chains in the order shown. 2Nal = N[C@@H](Cc1ccc2ccccc2c1)C(=O)O; Diglycolyl = O=C(COCC(=O)[*:2])[*:1]; NMeR = CN[C@@H](CCCNC(=N)N)C(=O)O; hPhe = N[C@@H](CCc1ccccc1)C(=O)O; Tic = O=C(O)[C@@H]1Cc2ccccc2CN1; NMeK = CN[C@@H](CCCCN)C(=O)O; Pen = CC(C)(S)[C@H](N)C(=O)O; Dab = NCC[C@H](N)C(=O)O; Dap = NC[C@H](N)C(=O)O

Assays:
α4β7 = α4β7 (Homo sapiens, UniProt P13612+P26010); assay: α4β7-MAdCAM Cell Adhesion Assay (RPMI 8866 human cells); assay type: cell-based; set-up: host or cells: RPMI 8866 human B lymphoblastoid cells; conditions: Table 3-B, Potency (α4β7); range classes; read-out: α4β7 cell (Hu) IC50
Sequence of α4β7 (P13612 34-1032): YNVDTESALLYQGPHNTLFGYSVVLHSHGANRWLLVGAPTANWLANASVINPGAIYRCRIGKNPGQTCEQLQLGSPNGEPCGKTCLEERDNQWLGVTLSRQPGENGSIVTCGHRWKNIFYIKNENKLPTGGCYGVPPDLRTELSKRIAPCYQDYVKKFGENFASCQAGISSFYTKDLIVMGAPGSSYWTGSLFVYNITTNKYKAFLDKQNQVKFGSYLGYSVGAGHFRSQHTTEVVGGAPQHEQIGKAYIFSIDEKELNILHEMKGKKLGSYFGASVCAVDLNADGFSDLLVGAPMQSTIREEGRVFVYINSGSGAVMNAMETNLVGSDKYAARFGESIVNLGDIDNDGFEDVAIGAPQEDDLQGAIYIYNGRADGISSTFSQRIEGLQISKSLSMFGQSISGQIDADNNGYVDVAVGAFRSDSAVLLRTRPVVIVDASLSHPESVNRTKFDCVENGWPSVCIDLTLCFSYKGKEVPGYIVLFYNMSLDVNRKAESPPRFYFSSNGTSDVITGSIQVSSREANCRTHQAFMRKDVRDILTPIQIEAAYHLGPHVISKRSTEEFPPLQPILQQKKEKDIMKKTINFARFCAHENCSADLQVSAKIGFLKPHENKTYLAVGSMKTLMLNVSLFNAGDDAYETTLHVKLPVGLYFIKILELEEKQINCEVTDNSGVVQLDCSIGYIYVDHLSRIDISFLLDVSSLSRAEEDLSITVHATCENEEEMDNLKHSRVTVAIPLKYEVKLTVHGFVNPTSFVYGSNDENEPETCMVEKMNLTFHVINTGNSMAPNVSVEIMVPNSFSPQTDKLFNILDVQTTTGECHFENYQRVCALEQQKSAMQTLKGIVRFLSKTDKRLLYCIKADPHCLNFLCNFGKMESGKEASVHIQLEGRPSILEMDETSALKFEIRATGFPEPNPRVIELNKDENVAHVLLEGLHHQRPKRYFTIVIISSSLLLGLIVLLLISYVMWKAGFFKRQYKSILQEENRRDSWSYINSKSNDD
Sequence of α4β7 (P26010 20-798): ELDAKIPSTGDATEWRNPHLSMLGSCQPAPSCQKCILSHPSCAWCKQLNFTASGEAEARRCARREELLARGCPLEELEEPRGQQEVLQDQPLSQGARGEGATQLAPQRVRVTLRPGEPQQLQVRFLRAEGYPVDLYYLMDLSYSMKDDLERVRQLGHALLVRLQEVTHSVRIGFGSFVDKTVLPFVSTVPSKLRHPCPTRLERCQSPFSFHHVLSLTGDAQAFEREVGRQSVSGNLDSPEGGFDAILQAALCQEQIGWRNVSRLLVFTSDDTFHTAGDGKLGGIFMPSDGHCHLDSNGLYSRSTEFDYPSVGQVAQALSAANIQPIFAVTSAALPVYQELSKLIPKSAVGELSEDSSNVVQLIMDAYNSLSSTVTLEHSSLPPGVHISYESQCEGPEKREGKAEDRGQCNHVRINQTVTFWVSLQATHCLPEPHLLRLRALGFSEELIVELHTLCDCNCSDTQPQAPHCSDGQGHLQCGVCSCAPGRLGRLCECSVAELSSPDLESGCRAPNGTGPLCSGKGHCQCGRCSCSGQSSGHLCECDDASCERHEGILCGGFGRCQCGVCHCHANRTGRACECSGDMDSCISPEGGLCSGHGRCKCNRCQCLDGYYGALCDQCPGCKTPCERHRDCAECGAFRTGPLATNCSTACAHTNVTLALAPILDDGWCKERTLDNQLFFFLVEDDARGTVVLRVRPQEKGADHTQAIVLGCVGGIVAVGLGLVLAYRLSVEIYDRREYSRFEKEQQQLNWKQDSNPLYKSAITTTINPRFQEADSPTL
In short: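 Washed RPMI 8866 cells (200,000/well) in DMEM with 0.1% BSA, 10 mM HEPES pH 7, 1 mM MnCl2 adhered to rh MAdCAM-1/Fc-coated wells with serially diluted peptides, 30-45 min at 37 °C. After three washes, bound cells quantified by MTT, A570, cell-free background subtracted for dose response.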

[1] = Simulated Intestinal Fluid (SIF) Stability Assay; assay type: in vitro ADME, porcine; conditions: pig, simulated intestinal fluid (SIF) with 1% porcine pancreatin, pH 6.5, Table 3-B
Method: Studies were carried out in simulated intestinal fluid (SIF) to evaluate intestinal stability of the peptide molecules of the instant invention. To prepare the SIF reagent, blank FASSIF was prepared by dissolving 0.348 g NaOH, 3.954 g sodium phosphate monobasic monohydrate and 6.186 g NaCl in a final volume of 1 liter water (final pH=6.5). To this solution, 24 g porcine pancreatin (Sigma catalog P7545) was added and stirred for 30 minutes (final pancreatin concentration is 2.4%). The solution was filtered through a cheese cloth and a No. 1 Whatman filter, and 10 ml aliquots were stored at −70° C. To run the reaction, a 10 ml aliquot was thawed at 37° C., and 125 ul aliquots were removed and mixed with an equal volume of blank FASSIF. The peptide stock solution (10 mM in 100% DMSO) was diluted 75-fold in blank FASSIF. A 50 μl aliquot of the diluted peptide was combined with 125 μl pancreatin (2.4%) and 125 μl blank FASSIF to yield final concentrations of 1% pancreatin and 22 μM peptide. The reactions were incubated at 37° C., and at various time points 50 μl aliquots were removed and added to 200 μl of quench solution containing 50% acetonitrile, 50% methanol, 5% formic acid, and 1 μg/ml internal standard. The quenched samples were centrifuged at 10,000 rpm for 10 minutes, and the supernatants were analyzed by LCMS/MS. The percent remaining at each time point was calculated based on the peak area response ratio of test to compound to internal standard. Half-lives were calculated by fitting to a first-order exponential decay equation using GraphPad.

[2] = > means experiment was stopped at that time and half life was not reached, read-out: Stabilty SIF t1/2

Row | SMILES | IC50 (α4β7) [nM] | half-life at 22 μM [1, 2] [h] | half-life at 22 μM ([1]; alone or in parentheses after >360, read-out: Stabilty SIF t1/2, in hr (converted)) [h]
1 | CC(=O)N[C@@H]1C(=O)N(C)[C@@H](CCCNC(=N)N)C(=O)N[C@@H](CO)C(=O)N[C@@H](CC(=O)O)C(=O)N[C@@H]([C@@H](C)O)C(=O)N[C@@H](CC(C)C)C(=O)N[C@H](C(=O)N[C@@H](CCc2ccccc2)C(=O)N[C@@H](CCC(=O)O)C(=O)N[C@H](CCCCNC(=O)COCC(=O)NCCCC[C@@H](NC(=O)[C@H](CCC(=O)O)NC(=O)[C@H](CCc2ccccc2)NC(=O)[C@H]2NC(=O)[C@H](CC(C)C)NC(=O)[C@H]([C@@H](C)O)NC(=O)[C@H](CC(=O)O)NC(=O)[C@H](CO)NC(=O)[C@H](CCCNC(=N)N)N(C)C(=O)[C@@H](NC(C)=O)C(C)(C)SSC2(C)C)C(N)=O)C(N)=O)C(C)(C)SSC1(C)C [compound 45] (I: Ac-[Pen][NMeR]SDTL[Pen][hPhe]E[dK]-NH2 / II: Ac-[Pen][NMeR]SDTL[Pen][hPhe]E[dK]-NH2; disulfide I:1-I:7, II:1-II:7; linker I:10-II:10 via Diglycolyl) | 25 to 50 | 0.617 | –
2 | CC(=O)N[C@@H]1C(=O)N(C)[C@@H](CCCNC(=N)N)C(=O)N[C@@H](CO)C(=O)N[C@@H](CC(=O)O)C(=O)N[C@@H]([C@@H](C)O)C(=O)N[C@@H](CC(C)C)C(=O)N[C@H](C(=O)N[C@@H](Cc2c[nH]c3ccccc23)C(=O)N(C)[C@@H](CCCCNC(=O)COCC(=O)NCCCC[C@@H](C(N)=O)N(C)C(=O)[C@H](Cc2c[nH]c3ccccc23)NC(=O)[C@H]2NC(=O)[C@H](CC(C)C)NC(=O)[C@H]([C@@H](C)O)NC(=O)[C@H](CC(=O)O)NC(=O)[C@H](CO)NC(=O)[C@H](CCCNC(=N)N)N(C)C(=O)[C@@H](NC(C)=O)C(C)(C)SSC2(C)C)C(N)=O)C(C)(C)SSC1(C)C [compound 77] (I: Ac-[Pen][NMeR]SDTL[Pen]W[NMeK]-NH2 / II: Ac-[Pen][NMeR]SDTL[Pen]W[NMeK]-NH2; disulfide I:1-I:7, II:1-II:7; linker I:9-II:9 via Diglycolyl) | 100 to 500 | > 3 | –
3 | CC(=O)N[C@@H]1C(=O)N(C)[C@@H](CCCNC(=N)N)C(=O)N[C@@H](CO)C(=O)N[C@@H](CC(=O)O)C(=O)N[C@@H]([C@@H](C)O)C(=O)N[C@@H](CC(C)C)C(=O)N[C@H](C(=O)N[C@@H](Cc2c[nH]c3ccccc23)C(=O)O)C(C)(C)SSC1(C)C [compound 127] (Ac-[Pen][NMeR]SDTL[Pen]W-OH; disulfide 1-7) | 100 to 500 | – | 35
4 | CC(=O)N[C@@H]1C(=O)N(C)[C@@H](CCCNC(=N)N)C(=O)N[C@@H](CO)C(=O)N[C@@H](CC(=O)O)C(=O)N[C@@H]([C@@H](C)O)C(=O)N[C@@H](CC(C)C)C(=O)N[C@H](C(=O)N[C@H](Cc2ccccc2)C(=O)N[C@H](CCC(=O)O)C(=O)N[C@H](CCCCNC(=O)COCC(=O)NCCCC[C@@H](NC(=O)[C@@H](CCC(=O)O)NC(=O)[C@@H](Cc2ccccc2)NC(=O)[C@H]2NC(=O)[C@H](CC(C)C)NC(=O)[C@H]([C@@H](C)O)NC(=O)[C@H](CC(=O)O)NC(=O)[C@H](CO)NC(=O)[C@H](CCCNC(=N)N)N(C)C(=O)[C@@H](NC(C)=O)C(C)(C)SSC2(C)C)C(N)=O)C(N)=O)C(C)(C)SSC1(C)C [compound 2] (I: Ac-[Pen][NMeR]SDTL[Pen][dF][dE][dK]-NH2 / II: Ac-[Pen][NMeR]SDTL[Pen][dF][dE][dK]-NH2; disulfide I:1-I:7, II:1-II:7; linker I:10-II:10 via Diglycolyl) | 100 to 500 | > 3 | –
5 | CC(=O)N[C@@H]1C(=O)N(C)[C@@H](CCCNC(=N)N)C(=O)N[C@@H](CO)C(=O)N[C@@H](CC(=O)O)C(=O)N[C@@H]([C@@H](C)O)C(=O)N[C@@H](CC(C)C)C(=O)N[C@H](C(=O)N[C@@H](Cc2c[nH]c3ccccc23)C(=O)N[C@H](Cc2c[nH]cn2)C(=O)N[C@H](CCCCNC(=O)COCC(=O)NCCCC[C@@H](NC(=O)[C@@H](Cc2c[nH]cn2)NC(=O)[C@H](Cc2c[nH]c3ccccc23)NC(=O)[C@H]2NC(=O)[C@H](CC(C)C)NC(=O)[C@H]([C@@H](C)O)NC(=O)[C@H](CC(=O)O)NC(=O)[C@H](CO)NC(=O)[C@H](CCCNC(=N)N)N(C)C(=O)[C@@H](NC(C)=O)C(C)(C)SSC2(C)C)C(N)=O)C(N)=O)C(C)(C)SSC1(C)C [compound 104] (I: Ac-[Pen][NMeR]SDTL[Pen]W[dH][dK]-NH2 / II: Ac-[Pen][NMeR]SDTL[Pen]W[dH][dK]-NH2; disulfide I:1-I:7, II:1-II:7; linker I:10-II:10 via Diglycolyl) | 100 to 500 | 0.583 | –
6 | CC(=O)N[C@@H]1C(=O)N(C)[C@@H](CCCNC(=N)N)C(=O)N[C@@H](CO)C(=O)N[C@@H](CC(=O)O)C(=O)N[C@@H]([C@@H](C)O)C(=O)N[C@@H](CC(C)C)C(=O)N[C@H](C(=O)N2Cc3ccccc3C[C@H]2C(=O)N[C@H](CCC(=O)O)C(=O)N[C@H](CCCCNC(=O)COCC(=O)NCCCC[C@@H](NC(=O)[C@@H](CCC(=O)O)NC(=O)[C@@H]2Cc3ccccc3CN2C(=O)[C@H]2NC(=O)[C@H](CC(C)C)NC(=O)[C@H]([C@@H](C)O)NC(=O)[C@H](CC(=O)O)NC(=O)[C@H](CO)NC(=O)[C@H](CCCNC(=N)N)N(C)C(=O)[C@@H](NC(C)=O)C(C)(C)SSC2(C)C)C(N)=O)C(N)=O)C(C)(C)SSC1(C)C [compound 80] (I: Ac-[Pen][NMeR]SDTL[Pen][Tic][dE][dK]-NH2 / II: Ac-[Pen][NMeR]SDTL[Pen][Tic][dE][dK]-NH2; disulfide I:1-I:7, II:1-II:7; linker I:10-II:10 via Diglycolyl) | 50 to 100 | > 3 | –
7 | CC(=O)N[C@H](CCCCN)C(=O)N[C@H]1CSSC[C@@H](C(=O)N[C@@H](Cc2c[nH]c3ccccc23)C(=O)N[C@H](CCCCNC(=O)COCC(=O)NCCCC[C@@H](NC(=O)[C@H](Cc2c[nH]c3ccccc23)NC(=O)[C@@H]2CSSC[C@H](NC(=O)[C@@H](CCCCN)NC(C)=O)C(=O)N(C)[C@@H](CCCNC(=N)N)C(=O)N[C@@H](CO)C(=O)N[C@@H](CC(=O)O)C(=O)N[C@@H]([C@@H](C)O)C(=O)N[C@@H](CC(C)C)C(=O)N2)C(N)=O)C(N)=O)NC(=O)[C@H](CC(C)C)NC(=O)[C@H]([C@@H](C)O)NC(=O)[C@H](CC(=O)O)NC(=O)[C@H](CO)NC(=O)[C@H](CCCNC(=N)N)N(C)C1=O [compound 4] (I: Ac-[dK]C[NMeR]SDTLCW[dK]-NH2 / II: Ac-[dK]C[NMeR]SDTLCW[dK]-NH2; disulfide I:2-I:8, II:2-II:8; linker I:10-II:10 via Diglycolyl) | 10 to 25 | < 0.333 | –
8 | CC(=O)N[C@@H]1C(=O)N(C)[C@@H](CCCNC(=N)N)C(=O)N[C@@H](CO)C(=O)N[C@@H](CC(=O)O)C(=O)N[C@@H]([C@@H](C)O)C(=O)N[C@@H](CC(C)C)C(=O)N[C@H](C(=O)N[C@@H](Cc2c[nH]c3ccccc23)C(=O)N[C@H](CCC(=O)O)C(=O)N[C@@H](CN)C(N)=O)C(C)(C)SSC1(C)C [compound 55] (Ac-[Pen][NMeR]SDTL[Pen]W[dE][Dap]-NH2; disulfide 1-7) | 100 to 500 | > 3 | –
9 | CC(=O)N[C@@H]1C(=O)N(C)[C@@H](CCCNC(=N)N)C(=O)N[C@@H](CO)C(=O)N[C@@H](CC(=O)O)C(=O)N[C@@H]([C@@H](C)O)C(=O)N[C@@H](CC(C)C)C(=O)N[C@H](C(=O)N[C@@H](Cc2ccc3ccccc3c2)C(=O)N[C@H](Cc2ccc(O)cc2)C(=O)N[C@H](CCCCNC(=O)COCC(=O)NCCCC[C@@H](NC(=O)[C@@H](Cc2ccc(O)cc2)NC(=O)[C@H](Cc2ccc3ccccc3c2)NC(=O)[C@H]2NC(=O)[C@H](CC(C)C)NC(=O)[C@H]([C@@H](C)O)NC(=O)[C@H](CC(=O)O)NC(=O)[C@H](CO)NC(=O)[C@H](CCCNC(=N)N)N(C)C(=O)[C@@H](NC(C)=O)C(C)(C)SSC2(C)C)C(N)=O)C(N)=O)C(C)(C)SSC1(C)C [compound 27] (I: Ac-[Pen][NMeR]SDTL[Pen][2Nal][dY][dK]-NH2 / II: Ac-[Pen][NMeR]SDTL[Pen][2Nal][dY][dK]-NH2; disulfide I:1-I:7, II:1-II:7; linker I:10-II:10 via Diglycolyl) | 25 to 50 | > 3 | –
10 | CC(=O)N[C@@H]1C(=O)N(C)[C@@H](CCCNC(=N)N)C(=O)N[C@@H](CO)C(=O)N[C@@H](CC(=O)O)C(=O)N[C@@H]([C@@H](C)O)C(=O)N[C@@H](CC(C)C)C(=O)N[C@H](C(=O)N[C@@H](Cc2c[nH]c3ccccc23)C(=O)N[C@H](CCC(=O)O)C(=O)N[C@@H](CCN)C(N)=O)C(C)(C)SSC1(C)C [compound 56] (Ac-[Pen][NMeR]SDTL[Pen]W[dE][Dab]-NH2; disulfide 1-7) | 500 to 1000 | > 3 | –
